In patent publication US20110046101A1, “BATE-LACTAMASE INHIBITORS” (priority 2008, published 2011):
Several values for one entry are separate records, joined by “and”; a condition that tells them apart may be missing. Identical values can stand only once. Like-named read-outs stand apart in the source and are kept apart here.

What was measured:
IMP-1 = target: T1, IMP-1 (Serratia marcescens, UniProt P52699); experiment: biochemical; conditions: for IC50: IC50 (μM) class B IMP-1, nitrocefin 100 μM, 50 mM Hepes pH 7.3
T1 construct: made in house; host or cells: E. coli (pCIP4 plasmid from Dr. M. Galleni)
Experimental: (§1) Compounds of the present application were evaluated as inhibitors of two Class B β-lactamases (IMP-1 and VIM-2) and two Class D β-lactamases OXA-10 and OXA-45).
IMP-1 was overexpressed in E. coli using the pCIP4 plasmid encoding IMP-1 which was obtained from Dr. M. Galleni, Université de Liège, B-4000 Liege, Belgium, and was purified as described by Laraki, N. et al., Antimicrob. Agents Chemother. 1999 43, 902-906.
(§2) Two methods were used for measurement of β-lactamase activity, based on the use of the substrate nitrocefin. The first was carried out in a cuvette (final volume 1 ml, 25° C.) with the aid of a Cary 5 spectrophotometer, and second was with the use of a Molecular Devices Spectramax 190 96 well plate reader (final volume 100 μl, 30° C.).
(§3) All assays were performed in the appropriate buffer for the enzyme: (i) IMP-1, VIM-2: 50 mM Hepes pH 7.3, 1 μg/ml BSA, 1 μM ZnSO4; (ii) OXA-45: 100 mM Na Phosphate/25 mM NaCO3 pH 7.0, 1 μg/ml BSA; and (iii) OXA-10: 100 mM Na Phosphate/25 mM NaCO3 pH 7.0. Enzyme concentrations were chosen so that a reasonable rate of reaction was observed. Inhibitors were dissolved in DMSO, with the final concentration of DMSO in the assay being 1%. Nitrocefin was dissolved in DMSO and diluted in 50 mM Hepes pH 7.3 with the final concentration in the assay being 100 μM. The enzyme was allowed to react with the inhibitor for a predetermined time followed by addition of substrate to initiate the reaction, which was monitored for an increase in absorbance at 482 nm. IC50 values were determined by plotting percent loss of initial activity vs log inhibitor concentration. Controls were run to ensure that there was minimal loss of activity with DMSO (<10%). When inhibition by DMSO was noted, 0.5 M NaCl was added to stabilize the enzyme.

VIM-2 = target: T2, VIM-2 (Escherichia coli, UniProt Q5U7L7); experiment: biochemical; format: biochemical
T2 construct: made in house; host or cells: E. coli DH10B (pNOR,2001 plasmid from Dr. P. Nordmann)
Experimental: as §1
VIM-2 was overexpressed in E. coli (DH10B) containing the pNOR,2001 plasmid, encoding VIM-2, which was provided by Dr. P. Nordmann, Universite de Paris, and was purified as described by Poirel et al., Antimicrob. Agents Chemother. 2000, 44, 891-897.
as §2, §3

OXA-10 = target: T3, OXA-10 (Pseudomonas aeruginosa, UniProt P14489); experiment: biochemical; format: biochemical
T3 construct: made in house; host or cells: E. coli (pEt24a(+) plasmid from Dr. S. Mobashery)
Experimental: as §1
OXA-10 was overexpressed in E. coli using the pEt24a(+) plasmid, encoding OXA-10, which was provided by Dr. S. Mobashery, University of Notre Dame, and was purified as described by Golemi et al., J. Am. Chem. Soc. 2000, 122, 6132-6133.
as §2, §3

OXA-45 = OXA-45 (Pseudomonas aeruginosa, UniProt Q7WZC7); experiment: β-lactamase inhibition assay with nitrocefin substrate, OXA-45; format: biochemical
Experimental: as §1
OXA-45 was a gift from Dr. J. Spencer, University of Bristol, and had been prepared and purified as described by Toleman, M. A. et al., Antimicrob. Agents Chemother. 2003, 47, 2859-2863.
as §2, §3

[1] = tested on: Pseudomonas aeruginosa strain 81-11963 (produces metallo β-lactamase VIM-2); experiment: Agar dilution MIC, synergy with pipericillin, P. aeruginosa; format: cell-based; conditions: P. aeruginosa strain 81-11963 (VIM-2), compound at ¼ the concentration of the antibiotic, 18 h
Experimental: (§4) Such compounds were expected to enhance the potency of a clinically useful β-lactam antibiotic against clinical isolates of human pathogenic bacteria which are highly resistant to β-lactam antibiotics. Certain β-lactamase inhibitors were tested to determine whether or not they would have a synergistic effect on the antibacterial activity of pipericillin against β-lactam antibiotic resistant bacterial clinical isolates using the Agar Dilution Method.
(§5) Bacterial colonies were taken from overnight blood agar plates, and sterile saline was inoculated to make a 0.5 McFarland suspension inoculum and further diluted such that the 10^4 CFU spots were delivered to the MHA (Oxoid) surface. Inhibitor samples were dissolved in DMSO and administered at a pipericillin:compound ratio of 4:1 (wt/wt). The plates were incubated at 35° C. and read after 18 h of incubation. MICs were measured by agar dilution on Mueller-Hinton II agar (BD Microbiology Systems, Cockeysville, Md., USA), as recommended by the NCCLS (National Committee for Clinical Laboratory Standards. (2003).Performance Standards for Antimicrobial Susceptibility Testing.)

[2] = tested on: Stenotrophomonas maltophilia strain 92-00626 (produces metallo β-lactamase L1); experiment: Agar dilution MIC, synergy with pipericillin, S. maltophilia; format: cell-based; conditions: S. maltophilia strain 92-00626 (L1), compound at ¼ the concentration of the antibiotic, 18 h
Experimental: as §4, §5

[3] = nitrocefin 100 μM, 100 mM Na Phosphate/25 mM NaCO3 pH 7.0, read-out: IC50 (μM) class D OXA-45

Chain of OXA-45 (Q7WZC7 entry or part of it): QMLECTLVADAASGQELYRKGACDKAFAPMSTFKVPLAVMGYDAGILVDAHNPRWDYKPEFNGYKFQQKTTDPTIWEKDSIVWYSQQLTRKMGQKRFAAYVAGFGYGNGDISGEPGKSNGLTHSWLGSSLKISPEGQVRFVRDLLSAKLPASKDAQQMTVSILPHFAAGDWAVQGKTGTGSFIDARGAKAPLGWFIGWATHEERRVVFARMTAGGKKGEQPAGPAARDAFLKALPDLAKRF
T3 sequence (P14489 20-266): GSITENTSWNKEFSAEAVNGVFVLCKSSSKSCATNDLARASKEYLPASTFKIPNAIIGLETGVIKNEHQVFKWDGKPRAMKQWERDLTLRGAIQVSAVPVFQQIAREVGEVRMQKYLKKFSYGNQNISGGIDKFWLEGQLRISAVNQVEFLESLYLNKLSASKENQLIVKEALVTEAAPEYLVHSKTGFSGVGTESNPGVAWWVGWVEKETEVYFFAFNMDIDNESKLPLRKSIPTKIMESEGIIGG
T1 sequence (P52699 19-246 limits assumed): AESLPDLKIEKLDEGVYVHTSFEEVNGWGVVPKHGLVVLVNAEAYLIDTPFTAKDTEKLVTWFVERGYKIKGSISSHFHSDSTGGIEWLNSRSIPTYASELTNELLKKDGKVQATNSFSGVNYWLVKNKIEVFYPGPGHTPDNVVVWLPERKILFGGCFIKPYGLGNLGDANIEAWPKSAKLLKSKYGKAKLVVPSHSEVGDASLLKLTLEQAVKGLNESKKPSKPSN

Structure (SMILES) | IC50 (IMP-1) | IC50 (VIM-2) | inhibition of VIM-2 (in words) (VIM-2) | inhibition of IMP-1 (in words) (IMP-1) | IC50 (OXA-10) | inhibition of OXA-10 (in words) (OXA-10) | IC50 (OXA-45) | inhibition of OXA-45 (in words) (OXA-45) | IC50 (OXA-45; [3]) | diminution in the MIC value found for pipericillin [1] | diminution in the MIC value found for pipericillin [2]
CC(C)(C)c1ccc(C(=O)N/N=C/c2c3ccccc3cc3ccccc23)cc1 [Compound 1, N′-(Anthracen-9-ylmethylene)-4-t-butylbenzohydrazide] | 0.9 µM and 0.91 µM | – | – | – | – | – | – | – | – | – | –
O=C(N/N=C/c1ccccc1O)c1ccc2ccccc2c1 [Compound 2, N′-(2-Hydroxybenzylidene)-2-naphthohydrazide] | 38.3 µM | 35.1 µM | inhibited | inhibited | 15.2 µM | inhibited | 1.8 µM | inhibited | – | – | –
O=C(N/N=C/c1ccccc1O)c1cc2ccccc2cc1O [Compound 3, 3-Hydroxy-N′-(2-hydroxybenzylidene)-2-naphthohydrazide] | 8.3 µM | 18.2 µM | inhibited | inhibited | 3.9 µM | inhibited | – | inhibited | 0.25 µM | greater than 4 fold | –
CC(C)(C)c1ccc(C(=O)N/N=C/c2c(O)ccc3ccccc23)cc1 [Compound 4, 4-t-Butyl-N′-((2-hydroxynaphthalen-1-yl)methylene)benzohydrazide] | 3 µM | 9 µM | inhibited | inhibited | 1.7 µM | inhibited | – | inhibited | 1.7 µM | – | –
CC(C)(C)c1ccc(C(=O)N/N=C/c2ccccc2O)cc1 [Compound 5, 4-t-Butyl-N′-(2-hydroxybenzylidene)benzohydrazide] | 9 µM | 18 µM | inhibited | inhibited | 12.8 µM | inhibited | – | inhibited | 28 µM | – | greater than 4 fold
O=C(N/N=C/c1c2ccccc2cc2ccccc12)c1cc2ccccc2cc1O [Compound 6, N′-(Anthracen-9-ylmethylene)-3-hydroxy-2-naphthohydrazide] | 1.02 µM | 12.3 µM | – | – | 2.8 µM | – | – | – | 0.57 µM | – | –
O=C(N/N=C/c1cccc(Oc2ccccc2)c1)c1cc2ccccc2cc1O [Compound 7, 3-Hydroxy-N-(3-phenoxybenzylidene)-2-naphthohydrazide] | 7 µM | 8.5 µM | – | – | 1.8 µM | – | 0.56 µM | – | – | – | –
CC(C)(C)c1ccc(C(=O)N/N=C/c2cccc(Oc3ccccc3)c2)cc1 [Compound 8, 4-t-Butyl-N′-(3-phenoxybenzylidene)benzohydrazide] | 6.7 µM | 23.9 µM | – | – | 10.3 µM | – | 4.3 µM | – | – | – | –
CC(C)(C)c1ccc(C(=O)N/N=C/c2ccccc2OCc2ccccc2)cc1 [Compound 10, N′-(2-(Benzyloxy)benzylidene)-4-t-butylbenzohydrazide] | 4.7 µM | > 10 µM | – | – | > 10 µM | – | – | – | > 10 µM | – | –
CC(C)(C)c1ccc(C(=O)N/N=C/c2ccc3c(c2)OCO3)cc1 [Compound 11, N′-(Benzo[d][1,3]dioxol-5-ylmethylene)-4-t-butylbenzohydrazide] | > 10 µM | > 10 µM | – | – | > 10 µM | – | > 10 µM | – | – | – | –
CC(C)(C)c1ccc(C(=O)N/N=C/c2ccccc2[N+](=O)[O-])cc1 [Compound 12, 4-t-Butyl-N′-(2-nitrobenzylidene)benzohydrazide] | > 10 µM | > 10 µM | – | – | > 10 µM | – | – | – | > 10 µM | – | –
O=C(N/N=C/c1ccccc1O)c1cccnc1 [Compound 13, N′-(2-Hydroxybenzylidene)nicotinohydrazide] | > 100 µM | > 100 µM | – | – | > 100 µM | – | > 100 µM | – | – | – | –
O=C(N/N=C/c1ccccc1O)c1ccncc1 [Compound 14, N′-(2-Hydroxybenzylidene)isonicotinohydrazide] | > 100 µM | > 100 µM | – | – | > 100 µM | – | – | – | > 100 µM | – | –
O=C(N/N=C/c1ccccc1O)c1ccccc1O [Compound 15, 2-Hydroxy-N′-(2-hydroxybenzylidene)benzohydrazide] | > 40 µM | > 40 µM | – | – | > 40 µM | – | – | – | > 40 µM | – | –
